Drawing on PubChem BioAssay (NCI), this text covers TGI for seven compounds.

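Test compounds were applied to cells in 96-well plates for 48 hours at 5 doses. TGI denotes the concentration required for complete inhibition of growth.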

Experiment in all cases: NCI anticancer screen, dose series, 48 h
In experiment [1] the test system is NCI-H460 lung.
Experiment [2] concerns CCRF-CEM leukemia.
Experiment [3] relates to NCI/ADR-RES ovarian.
In experiment [4] the test system is MALME-3M melanoma.
Experiment [5] concerns UACC-62 melanoma.
The test system of experiment [6] is KM12 colon.
Experiment [7] deals with DU-145 prostate.
The test system of experiment [8] is SR leukemia.
Experiment [9] deals with M14 melanoma.
In experiment [10] the test system is MDA-N.
In experiment [11] the test system is A498 renal.
Experiment [12] deals with NCI-H522 lung.
Experiment [13] deals with MDA-MB-231 breast.
The test system of experiment [14] is OVCAR-5 ovarian.
The subject of experiment [15] is T-47D breast.
For experiment [16], the system named is SF-539 CNS.
In experiment [17] the test system is HCT-15 colon.
Experiment [18] deals with COLO 205 colon.
The test system of experiment [19] is PC-3 prostate.
The test system of experiment [20] is RPMI-8226 leukemia.

Turning to `Cc1ccc(N=Nc2ccc(O)c(CN(C)C)c2)cc1C`, the TGI in experiment [1] is 42.6 µM; in experiment [2], 76.5 µM; in experiment [3], 52.6 µM; in experiment [4] it was 34.8 µM; in experiment [5], 34.6 µM; in [6], 45.6 µM. In addition, the TGI in [7] is 95.8 µM; in [8] it was more than 100 µM; in [9], 81.1 µM; in experiment [10], more than 100 µM; in [11], 47.4 µM; in experiment [12], 28.3 µM. Further, the TGI in experiment [13] is more than 100 µM; in experiment [14], more than 100 µM; in experiment [15], 41.9 µM; in [16], 44.1 µM; in [17] it was 54 µM; in experiment [18] it was 25.6 µM. Besides, the TGI in experiment [19] is more than 100 µM; in experiment [20], 90.1 µM.

As for `COc1ccc(/C=C/C(=O)/C=C/c2ccc(OC)cc2)cc1`, the TGI in experiment [1] was more than 100 µM; in experiment [2], more than 100 µM; in [3], more than 100 µM; in experiment [4], more than 100 µM; in experiment [5] it was more than 100 µM; in experiment [6], 59.6 µM. For the same compound, the TGI in experiment [7] is more than 100 µM; in [8] it was 68.4 µM; in experiment [9], 57.2 µM; in [10] it was 49 µM; in [11], more than 100 µM; in [12], more than 100 µM. Moreover, the TGI was more than 100 µM in experiment [13]; more than 100 µM in experiment [14]; more than 100 µM in experiment [15]; 72.7 µM in experiment [16]; more than 100 µM in [17]; 95.4 µM in experiment [18]. For the same compound, the values for the TGI in experiment [19] and in experiment [20] were more than 100 µM and 55.9 µM, respectively.

As for `O=C(O)CN1CCN2CCOCCOCCN(CC1)CCN(CC(=O)O)CC2`, the TGI in experiment [1], in experiment [2], in experiment [3], in [4], in [5] and in [6] was more than 100 µM each time. Further, the TGI in experiment [7], in experiment [8], in experiment [9], in [10], in experiment [11] and in [12] was more than 100 µM each time. The TGI in experiment [13], in experiment [14], in experiment [15], in experiment [16], in [17] and in experiment [18] was more than 100 µM each time. Besides, the TGI in experiment [19] and in experiment [20] was more than 100 µM in each case.

As for `O=c1[nH]/c(=C/c2ccc(OCc3ccccc3)cn2)c(=O)[nH]/c1=C/c1ccc([N+](=O)[O-])cc1`, the TGI in [1], in experiment [2], in experiment [3], in experiment [4], in [5] and in experiment [6] was more than 100 µM each time. For the same compound, the TGI in [7] was more than 100 µM; in experiment [8], more than 100 µM; in experiment [9], more than 100 µM; in [10] it was more than 100 µM; in [11], more than 84.3 µM; in experiment [12], more than 100 µM. Further, the TGI in [13], in experiment [14], in [15], in [16], in experiment [17] and in experiment [18] was more than 100 µM each time. Also, the TGI in [19] and in [20] was more than 100 µM in each case.

For `FC(F)(Sc1ccccn1)c1nc2ccccc2o1`, the TGI in experiment [1], in experiment [2], in experiment [3], in [4], in experiment [5] and in [6] was more than 100 µM throughout. Also, the TGI in experiment [7], in [8], in [9], in experiment [10], in experiment [11] and in [12] was more than 100 µM each time. Further, the TGI in [13], in [14], in [15], in [16], in experiment [17] and in experiment [18] was more than 100 µM throughout. Besides, the TGI in [19] and in [20] was more than 100 µM in each case.

For the compound `COC(=O)c1sc2ncc3c(c2c1N)CCCCCC3`, the TGI in [1], in [2], in [3], in experiment [4], in [5] and in experiment [6] was more than 100 µM in each case. Further, the TGI in experiment [7], in [8], in experiment [9], in [10], in [11] and in [12] was more than 100 µM throughout. Besides, the TGI in [13], in [14], in experiment [15], in experiment [16], in experiment [17] and in experiment [18] was more than 100 µM each time. The TGI in experiment [19] and in experiment [20] was more than 100 µM throughout.

On to `Cc1nc2sc3ccccc3n2c(=O)c1N=Nc1ccc(Br)cc1`, for which the TGI in experiment [1], in experiment [2], in experiment [3], in [4], in experiment [5] and in experiment [6] was more than 100 µM each time. Also, the TGI in experiment [7], in [8], in experiment [9], in [10], in experiment [11] and in experiment [12] was more than 100 µM in each case. Moreover, the TGI in experiment [13], in experiment [14], in experiment [15], in [16], in experiment [17] and in experiment [18] was more than 100 µM throughout. Further, the TGI in [19] and in [20] was more than 100 µM throughout.
